# Assay results taken from paper PMC11045757, “Group 3 medulloblastoma transcriptional networks collapse under domain specific EP300/CBP inhibition” (Nature Communications, 2024).
# System: 460 barcoded cancer cell lines
# Assay: PRISM pooled barcoded cancer cell line growth screen, 10-point dose-response, 5 days, AUC
# Format: cell-based
# Design: scale not given here
# Description: Several small molecule inhibitors of distinct protein domains of EP300/CBP are available, though the majority target the histone acetyltransferase domain (HAT) or bromodomain (BRD)[5],[10],[21],[22]. […] We used these tools to investigate the relative contribution of the EP300/CBP BRD or HAT domain to tumor cell growth (Fig. 1a). To do so, we performed 10-point, dose-response growth assays using mixed pools of 460 barcoded cancer cell lines, over five days of treatment in vitro[33],[34]. Growth was measured using an area-under-the-curve (AUC) approach (Supplementary Table 1, Supplementary Fig. 1a). […] Given potential differences in compound penetration and solubility, and to compare the relative cell line and tumor-specific effects of these two compounds in assays performed non-simultaneously, we performed a median normalization of each dataset (Supplementary Table 2).
compound,measurement,setting,value
CO[C@H]1CC[C@H](n2c([C@@H]3CCCC(=O)N3c3ccc(F)c(F)c3)nc3cc(-c4c(C)noc4C)ccc32)CC1 [CCS1477],AUC,"SF539, Glioma",0.9912
same,AUC,"SH4, Melanoma",0.9252
same,AUC,"SH10TC, Gastric Cancer",0.7637
same,AUC,"SHP77, Lung Cancer",0.791
same,AUC,"SIMA, Neuroblastoma",0.8003
same,AUC,"SJSA1, Osteosarcoma",0.881
same,AUC,"SKES1, Ewing Sarcoma",0.7015
same,AUC,"SKHEP1, Liver Cancer",0.9726
same,AUC,"SKM1, AML",0.6213
same,AUC,"SKMEL30, Melanoma",0.7984
same,AUC,"SKMES1, Lung Cancer",0.9581
same,AUC,"SKMM2, Myeloma",0.9554
same,AUC,"SKNAS, Neuroblastoma",0.9789
same,AUC,"SKNBE2, Neuroblastoma",0.6208
same,AUC,"SKNDZ, Neuroblastoma",0.8143
same,AUC,"SKNEP1, Ewing Sarcoma",0.8025
same,AUC,"SKNMC, Ewing Sarcoma",0.8546
same,AUC,"SKNO1, AML",0.6432
same,AUC,"SKNSH, Neuroblastoma",0.8336
same,AUC,"SKOV3, Ovarian Cancer",0.9975
same,AUC,"SKUT1, Leiomyosarcoma",0.8326
same,AUC,"SNU1, Gastric Cancer",0.9131
same,AUC,"SNU46, Head and Neck Cancer",0.9224
same,AUC,"SNU61, Colon/Colorectal Cancer",0.9346
same,AUC,"SNU81, Colon/Colorectal Cancer",1
same,AUC,"SNU182, Liver Cancer",0.7735
same,AUC,"SNU201, Glioblastoma",0.712
same,AUC,"SNU213, Pancreatic Cancer",0.9853
same,AUC,"SNU216, Gastric Cancer",0.9769
same,AUC,"SNU245, Bile Duct Cancer",0.8366
same,AUC,"SNU407, Colon/Colorectal Cancer",0.9923
same,AUC,"SNU423, Liver Cancer",0.9162
same,AUC,"SNU449, Liver Cancer",0.9509
same,AUC,"SNU466, Glioblastoma",0.9993
same,AUC,"SNU478, Bile Duct Cancer",0.6392
same,AUC,"SNU601, Gastric Cancer",0.8941
same,AUC,"SNU668, Gastric Cancer",0.9591
same,AUC,"SNU685, Endometrial/Uterine Cancer",0.9601
same,AUC,"SNU719, Gastric Cancer",0.914
same,AUC,"SNU869, Bile Duct Cancer",0.9994
same,AUC,"SNU878, Liver Cancer",0.7965
same,AUC,"SNU886, Liver Cancer",1
same,AUC,"SNU1041, Head and Neck Cancer",0.8828
same,AUC,"SNU1066, Head and Neck Cancer",1
same,AUC,"SNU1076, Head and Neck Cancer",0.8929
same,AUC,"SNU1077, Endometrial/Uterine Cancer",0.9948
same,AUC,"SNU1079, Bile Duct Cancer",0.994
same,AUC,"SNU1105, Glioblastoma",0.9872
same,AUC,"SNU1196, Bile Duct Cancer",0.8873
same,AUC,"SNU1214, Head and Neck Cancer",0.7307
same,AUC,"SNUC2A, Colon/Colorectal Cancer",0.8028
same,AUC,"SNUC4, Colon/Colorectal Cancer",0.894
same,AUC,"SQ1, Lung Cancer",0.8902
same,AUC,"SR786, Lymphoma",0.7905
same,AUC,"STM9101, Rhabdoid",0.9061
same,AUC,"SUDHL8, Lymphoma",0.8983
same,AUC,"SW48, Colon/Colorectal Cancer",1
same,AUC,"SW579, Thyroid Cancer",0.9957
same,AUC,"SW620, Colon/Colorectal Cancer",1
same,AUC,"SW780, Bladder Cancer",0.8694
same,AUC,"SW837, Colon/Colorectal Cancer",0.8996
same,AUC,"SW900, Lung Cancer",0.9538
same,AUC,"SW948, Colon/Colorectal Cancer",0.8065
same,AUC,"SW1088, Glioma",0.9904
same,AUC,"SW1116, Colon/Colorectal Cancer",0.8985
same,AUC,"SW1463, Colon/Colorectal Cancer",0.8864
same,AUC,"SW1710, Bladder Cancer",1
same,AUC,"T3M10, Lung Cancer",0.9279
same,AUC,"T24, Bladder Cancer",0.9961
same,AUC,"T47D, Breast Cancer",0.8791
same,AUC,"TALL1, T-acute leukemia",0.9864
same,AUC,"TC71, Ewing Sarcoma",0.7599
same,AUC,"TC106, Ewing Sarcoma",1
same,AUC,"TC205, Ewing Sarcoma",0.7558
same,AUC,"TCCPAN2, Pancreatic Cancer",0.9414
same,AUC,"TCCSUP, Bladder Cancer",0.982
same,AUC,"TE1, Esophageal Cancer",1
same,AUC,"TE4, Esophageal Cancer",1
same,AUC,"TE6, Esophageal Cancer",0.9744
same,AUC,"TE9, Esophageal Cancer",0.9981
same,AUC,"TE10, Esophageal Cancer",0.7792
same,AUC,"TE11, Esophageal Cancer",0.9258
same,AUC,"TE15, Esophageal Cancer",0.8586
same,AUC,"TE617T, Rhabdomyosarcoma",0.9947
same,AUC,"TF1, AML",0.6668
same,AUC,"TM87, Rhabdoid",0.9581
same,AUC,"TOLEDO, Lymphoma",0.9697
same,AUC,"TOV21G, Ovarian Cancer",0.9924
same,AUC,"TT2609C02, Thyroid Cancer",0.8798
same,AUC,"TT, Thyroid Cancer",0.7695
same,AUC,"TTC442, Rhabdomyosarcoma",0.8425
same,AUC,"TTC549, Rhabdoid",0.9131
same,AUC,"TTC642, Rhabdoid",0.7844
same,AUC,"TTC1240, Rhabdoid",0.4497
same,AUC,"TYKNU, Ovarian Cancer",0.8502
same,AUC,"U2OS, Osteosarcoma",0.8623
same,AUC,"U266B1, Myeloma",0.9866
same,AUC,"U937, AML",0.7957
same,AUC,"UACC62, Melanoma",0.8964
same,AUC,"UACC257, Melanoma",0.9638
same,AUC,"UBLC1, Bladder Cancer",0.695
same,AUC,"UMUC1, Bladder Cancer",0.8319
same,AUC,"UW228, Medulloblastoma",0.9704
same,AUC,"VMCUB1, Bladder Cancer",0.7437
same,AUC,"VMRCRCW, Kidney Cancer",0.9159
same,AUC,"VMRCRCZ, Kidney Cancer",0.8277
same,AUC,"WM88, Melanoma",0.9177
same,AUC,"WM793, Melanoma",0.9978
same,AUC,"WM983B, Melanoma",0.8412
same,AUC,"YAPC, Pancreatic Cancer",1
same,AUC,"YD10B, Head and Neck Cancer",0.8679
same,AUC,"YD15, Head and Neck Cancer",0.7679
same,AUC,"YD38, Head and Neck Cancer",0.6898
same,AUC,"YH13, Glioblastoma",0.9673
